Reference: ChEMBL document CHEMBL1201862, “PubChem BioAssay data set” (2004)
Active and inactive are the calls of the source. For most assays here, no stated cut-off is given here; in the data, actives have a measured EC50 and inactives only a lower limit.

Columns and labels:
[1] = tested on: Streptococcus sp. 'group A'; test: growth inhibition of control SK(-) GAS strain, dose response, counter-screen for streptokinase expression inhibitor project, luminescence, kanamycin, BacTiterGlo, confirmation (AID 1900); type: functional, organism-based
Streptococcus = test: Group A Streptococcus viability loss, dose response, counter-screen for streptokinase expression inhibitor project, luminescence, BacTiterGlo (AID 1915); type: functional, organism-based;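 further: potency for reduction of bacterial viability or growth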
Streptokinase A = molecular target: T1, Streptokinase A (Streptococcus pyogenes serotype M1, UniProt P10520); test: S. pyogenes streptokinase expression inhibitors, potency, dose response, plasminogen activation absorbance, OD405 (AID 1914); type: functional, Streptococcus pyogenes M1 GAS;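 further: secreted streptokinase activity via plasminogen activation per viability signal from cell pellet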
T1 sequence (P10520 whole entry): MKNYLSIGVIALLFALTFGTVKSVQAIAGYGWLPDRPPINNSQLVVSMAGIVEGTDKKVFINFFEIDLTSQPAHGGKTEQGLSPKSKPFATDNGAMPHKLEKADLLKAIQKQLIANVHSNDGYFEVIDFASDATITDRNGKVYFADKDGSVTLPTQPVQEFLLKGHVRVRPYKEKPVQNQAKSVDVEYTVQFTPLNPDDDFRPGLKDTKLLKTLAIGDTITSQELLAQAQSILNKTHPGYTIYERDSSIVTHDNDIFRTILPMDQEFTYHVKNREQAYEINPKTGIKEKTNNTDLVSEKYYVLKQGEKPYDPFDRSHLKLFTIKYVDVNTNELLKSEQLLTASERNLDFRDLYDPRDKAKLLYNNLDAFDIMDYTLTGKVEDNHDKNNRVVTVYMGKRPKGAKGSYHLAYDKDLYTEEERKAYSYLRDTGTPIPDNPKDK

[2] = HEp-2 cell cytotoxicity, dose response, cytotoxicity control for RSV inhibitor project, HTS (AID 2410); type: functional; settings: human respiratory syncytial virus
Cytochrome P450 1A2 = molecular target: T2, Cytochrome P450 1A2 (Homo sapiens, UniProt P05177);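 further: PubChem cytochrome P450 panel assay, CYP1A2 panel member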
T2 sequence (P05177 whole entry): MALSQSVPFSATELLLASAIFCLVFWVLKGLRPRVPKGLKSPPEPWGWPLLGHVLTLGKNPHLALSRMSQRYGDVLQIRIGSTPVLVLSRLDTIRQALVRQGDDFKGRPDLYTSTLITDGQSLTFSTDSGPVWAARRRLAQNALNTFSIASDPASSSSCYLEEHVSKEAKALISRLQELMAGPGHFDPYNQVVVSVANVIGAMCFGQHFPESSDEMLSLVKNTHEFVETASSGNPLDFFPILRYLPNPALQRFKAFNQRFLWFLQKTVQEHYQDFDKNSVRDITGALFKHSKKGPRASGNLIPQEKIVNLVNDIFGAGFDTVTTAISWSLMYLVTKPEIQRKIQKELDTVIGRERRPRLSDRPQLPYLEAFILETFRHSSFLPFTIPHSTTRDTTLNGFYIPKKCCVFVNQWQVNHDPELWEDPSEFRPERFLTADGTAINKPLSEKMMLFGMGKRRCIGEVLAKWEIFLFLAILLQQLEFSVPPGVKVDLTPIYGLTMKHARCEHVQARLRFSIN

[3] = cytotoxicity toward NIH3T3 fibroblasts, dose response, counter-screen, cell-based, ATP luminescence, mouse fibroblasts (AID 2010); type: functional;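 further: cells exposed to compound for about 90 hours before reading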
[4] = inhibitors of intracellular T. cruzi replication, confirmation, NIH3T3 host cells, beta-gal luminescence (AID 2044); type: functional, cell-based;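 further: intracellular parasites grown in NIH/3T3 mouse fibroblasts as host cells; luminescent beta-galactosidase reporter signal from transgenic T. cruzi replicating inside host cells; inhibitors lower the luminescence signal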
INS1 = test: beta cell apoptosis inhibitors, cytokine rescue, dose response, luminescence, retest (AID 449756); type: functional, cell-based; settings: Rattus norvegicus;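 further: cell death triggered by IL-1 beta plus TNF-alpha plus IFN-gamma mixture; protective hits raise ATP signal compared with cytokine alone wells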

Cc1onc(-c2c(F)cccc2Cl)c1C(=O)NCc1ccc2c(c1)OCO2
EC50 [1]: > 150 µM (not active)
EC50 (Streptococcus): > 150 µM (not active)
EC50 (Streptokinase A): > 150 µM (not active)

O=C1CCC(/C=C/c2ccccc2)=NN1Cc1ccccc1Cl
CC50 [2]: 27 µM (active)

Cc1cccc2c1-c1sc(C(=O)N3CCc4ccccc4C3)cc1CO2
CC50 [2]: 11.6 µM (active)

CCCc1cc(COC)c(C#N)c(O)n1
AC50 (Cytochrome P450 1A2): 6.31 µM (inconclusive)

CCCCOc1ccc(/C=C/C2=CC(C)(C)NC(S)=N2)cc1OCC
EC50 [3]: > 60 µM (inconclusive)
EC50 [4]: 0.774 µM (active)

COc1cccc(C(=O)OC2CCN(C)CC2)c1
EC50 [3]: > 30 µM (not active)
EC50 [4]: 0.233 µM (active)

N#Cc1cccc(-c2nc3cnc(N4CCOCC4)nc3n(C[C@H]3CCCO3)c2=O)c1
AC50 (Cytochrome P450 1A2): 0.794 µM (inconclusive)

CCCN=C(S)N1CCN(c2nc(C)nc3sc4c(c23)CCCC4)CC1
CC50 [2]: 11.2 µM (active)

O=C(Nc1ccccc1N1CCCCC1)c1cc(S(=O)(=O)N2CCOCC2)ccc1Cl
CC50 [2]: 21.7 µM (active)

COc1cccc(C(=O)Nc2nc(-c3ccccc3)c(-c3ccccc3)o2)c1
EC50 [1]: 1.44 µM (active)
EC50 (Streptococcus): 5.62 µM (active)

COc1cccc(N/C(C)=C/C(=O)c2ccc(Br)cc2)c1
CC50 [2]: 25.5 µM (active)

CCOC(=O)C1CCN(C(=O)C(=O)c2cn(CC(=O)N3CCCCCC3)c3ccccc23)CC1
EC50 [3]: > 60 µM (not active)
EC50 [4]: 0.763 µM (active)

CN(Cc1ccco1)c1ncncc1-c1cccc(C#N)c1
AC50 (Cytochrome P450 1A2): 12.6 µM (inconclusive)

CCn1c(=O)c(C(=O)NNC(=O)c2ccc(Cl)cc2Cl)c(O)c2ccccc21
EC50 [1]: 3.62 µM (active)
EC50 (Streptococcus): 7.58 µM (active)

COC(=O)C1=C(c2ccccc2OCc2ccccc2)C[C@@H]2CC[C@H]1N2C(=O)NCc1ccc([N+](=O)[O-])cc1
CC50 [2]: 37.6 µM (active)

COc1cc(/C(C)=C/c2ccccc2)c2c(c1)oc1ccccc12
EC50 [1]: 2.3 µM (active)
EC50 (Streptococcus): > 150 µM (not active)
EC50 (Streptokinase A): 20.9 µM (active)

CC(C)(C)c1ccc(OCC(=O)N2CCN(c3ncccn3)CC2)cc1
EC50 [1]: > 150 µM (not active)
EC50 (Streptococcus): > 150 µM (not active)
EC50 (Streptokinase A): > 150 µM (not active)

COc1ccc(C(=O)NC(=S)NNC(=O)COc2ccccc2)cc1
EC50 [1]: 2.23 µM (active)
EC50 (Streptococcus): 3.64 µM (active)

Fc1cccc(Cc2noc(CN3CCCN(C4Cc5ccccc5C4)CC3)n2)c1
EC50 [3]: 45.2 µM (active)
EC50 [4]: 0.57 µM (active)

CCCC[C@@H]1C[C@H]1C(NC(=O)c1ccc(C(F)(F)F)cc1)c1ccc(C(=O)OC)cc1 (some centres undefined)
AC50 (Cytochrome P450 1A2): 15.8 µM (inconclusive)

COCCn1c(=O)c(-c2cn(C)c3ccccc23)nc2cnc(Oc3ccccc3)nc21
AC50 (Cytochrome P450 1A2): 10 µM (inconclusive)

Cc1ccc(-c2cccc(C(=O)NCCc3ccccc3)n2)c2ccccc12
CC50 [2]: 16.2 µM (active)

N=C(N)C(/N=N\c1ccccc1)C(=N)N (centres undefined)
AC50 (Cytochrome P450 1A2): 5.01 µM (inconclusive)

O=C1N=C(N/N=C/c2ccccc2O)SC1Cc1ccc(F)cc1 (centres undefined)
EC50 [1]: 16 µM (active)
EC50 (Streptococcus): > 150 µM (not active)
AC50 (INS1): 4.67 µM (active)
EC50 (Streptokinase A): > 150 µM (not active)

COc1ccc(/N=C2/SCC(c3ccc([N+](=O)[O-])cc3)=NN2CCO)cc1
CC50 [2]: 15.8 µM (active)

NC(=O)N/N=C(/CCCCCC/C(=N\NC(N)=O)c1ccccc1)c1ccccc1
EC50 [1]: 26.6 µM (active)
EC50 (Streptococcus): > 150 µM (not active)
EC50 (Streptokinase A): > 150 µM (not active)

C=CCNC(=S)N/N=C/c1ccc(OCc2ccccc2Cl)cc1
EC50 [3]: > 30 µM (not active)
EC50 [4]: 1.65 µM (active)

Cc1ccc(-n2c(-c3ccccc3)cc(/C=N/NC(=O)CC#N)c2-c2ccccc2)cc1
EC50 [3]: > 60 µM (not active)
EC50 [4]: 1.72 µM (active)

O=C1N(c2ccccc2)c2ccccc2C1(Cc1ccncc1)Cc1ccncc1 [LINOPIRDINE]
AC50 (Cytochrome P450 1A2): 31.6 µM (inconclusive)
